Data taken from the NIST ThermoML archive (doi:10.1021/je100211s).
± gives the expanded uncertainty stated by the source.

Experiment: mn = molality of the nth substance listed, in mol/kg
Settings: 101 kPa, Liquid; for viscosity: Capillary tube (Ostwald / Ubbelohde) method; for mass density: Vibrating tube method

CCCCCCCCCCCCCCCC[N+](C)(C)C.[Br-] [N,N,N-trimethyl-1-hexadecanaminium bromide] + O
viscosity (298.15 K, m1 = 0.001): 0.899 ± 0.009 mPa·s | viscosity (298.15 K, m1 = 0.003): 0.91 ± 0.009 mPa·s | viscosity (298.15 K, m1 = 0.005): 0.921 ± 0.009 mPa·s | mass density (298.15 K, m1 = 0.001): 997.2 ± 0.5 kg/m3 | mass density (298.15 K, m1 = 0.003): 997.3 ± 0.5 kg/m3 | mass density (298.15 K, m1 = 0.005): 997.4 ± 0.5 kg/m3 | viscosity (308.15 K, m1 = 0.001): 0.744 ± 0.008 mPa·s | viscosity (308.15 K, m1 = 0.003): 0.752 ± 0.008 mPa·s | viscosity (308.15 K, m1 = 0.005): 0.76 ± 0.008 mPa·s | mass density (308.15 K, m1 = 0.001): 994.2 ± 0.5 kg/m3 | mass density (308.15 K, m1 = 0.003): 994.3 ± 0.5 kg/m3 | mass density (308.15 K, m1 = 0.005): 994.4 ± 0.5 kg/m3 | viscosity (318.15 K, m1 = 0.001): 0.617 ± 0.008 mPa·s | viscosity (318.15 K, m1 = 0.003): 0.622 ± 0.008 mPa·s | viscosity (318.15 K, m1 = 0.005): 0.635 ± 0.008 mPa·s | mass density (318.15 K, m1 = 0.001): 990.4 ± 0.5 kg/m3 | mass density (318.15 K, m1 = 0.003): 990.5 ± 0.5 kg/m3 | mass density (318.15 K, m1 = 0.005): 990.6 ± 0.5 kg/m3
